Reference: PubChem BioAssay AID328 (DTP/NCI, 2004)
Where “and” joins values, the source holds several entries; their conditions need not be identical. Equal entries are not always repeated. Inconclusive results and toxic doses are left out.

Tested on: BDF1 mice, P388 leukemia ip, median survival T/C
Assay: NCI In Vivo Anticancer Drug Screen. Data for tumor model P388 Leukemia (intraperitoneal) in B6D2F1 (BDF1) mice
Settings: endpoint: median survival time, higher = longer survival
Outline: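 Mice carrying the transplantable tumour receive compound or vehicle. Survival is followed in each arm, and the treated measure is divided by the vehicle measure.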

[1] = dose: 50.0 mg/kg/injection, schedule: Q01DX009 (ip), vehicle: saline with Tween-80
[2] = dose: 100.0 mg/kg/injection, schedule: Q01DX009 (ip), vehicle: saline with Tween-80
[3] = dose: 200.0 mg/kg/injection, schedule: Q01DX009 (ip), vehicle: saline with Tween-80
[4] = dose: 6.25 mg/kg/injection, schedule: Q01DX009 (ip), vehicle: saline with Tween-80
[5] = dose: 12.5 mg/kg/injection, schedule: Q01DX009 (ip), vehicle: saline with Tween-80
[6] = dose: 25.0 mg/kg/injection, schedule: Q01DX009 (ip), vehicle: saline with Tween-80
[7] = dose: 100.0 mg/kg/injection, schedule: Q01DX009 (ip), vehicle: saline
[8] = dose: 100.0 mg/kg/injection, schedule: Q04DX003 (ip), vehicle: Klucel (hydroxypropylcellulose) (HPC)
[9] = dose: 200.0 mg/kg/injection, schedule: Q04DX003 (ip), vehicle: Klucel (hydroxypropylcellulose) (HPC)
[10] = dose: 50.0 mg/kg/injection, schedule: Q04DX003 (ip), vehicle: saline with Tween-80
[11] = dose: 100.0 mg/kg/injection, schedule: Q04DX003 (ip), vehicle: saline with Tween-80
[12] = dose: 200.0 mg/kg/injection, schedule: Q04DX003 (ip), vehicle: saline with Tween-80
[13] = dose: 100.0 mg/kg/injection, schedule: Q04DX003 (ip), vehicle: saline
[14] = dose: 200.0 mg/kg/injection, schedule: Q04DX003 (ip), vehicle: saline
[15] = dose: 400.0 mg/kg/injection, schedule: Q04DX003 (ip), vehicle: saline
[16] = dose: 400.0 mg/kg/injection, schedule: Q04DX003 (ip), vehicle: saline with Tween-80
[17] = dose: 25.0 mg/kg/injection, schedule: Q01DX009 (ip), vehicle: saline
[18] = dose: 50.0 mg/kg/injection, schedule: Q01DX009 (ip), vehicle: saline
[19] = dose: 200.0 mg/kg/injection, schedule: Q01DX009 (ip), vehicle: saline
[20] = dose: 400.0 mg/kg/injection, schedule: Q01DX009 (ip), vehicle: saline
[21] = dose: 400.0 mg/kg/injection, schedule: Q01DX009 (ip), vehicle: saline with Tween-80

COc1cc(O)c2c(c1)C(=O)c1cc(C)cc(O)c1C2=O
T/C (dose: 2.5 mg/kg/injection, schedule: Q01DX009 (ip), vehicle: saline with Tween-80): 100 % of control | T/C (dose: 5.0 mg/kg/injection, schedule: Q01DX009 (ip), vehicle: saline with Tween-80): 100 % of control | T/C (dose: 10.0 mg/kg/injection, schedule: Q01DX009 (ip), vehicle: saline with Tween-80): 95 % of control | T/C (dose: 20.0 mg/kg/injection, schedule: Q01DX009 (ip), vehicle: saline with Tween-80): 100 % of control

CCOC1OCN(c2cccc(Cl)c2)CC1(C)C (stereo not drawn)
T/C [1]: 98 % of control | T/C [2]: 112 % of control | T/C [3]: 114 % of control

Clc1ccc(CNc2ncnc3[nH]ncc23)cc1
T/C (dose: 3.13 mg/kg/injection, schedule: Q01DX009 (ip), vehicle: saline with Tween-80): 91 % of control | T/C [4]: 87 % of control | T/C [5]: 89 % of control | T/C [6]: 105 % of control

CC1(C)C=C(C(Br)c2ccc(Cl)cc2)C(=O)c2ccccc21 (stereo not drawn)
T/C (dose: 50.0 mg/kg/injection, schedule: Q01DX009 (ip), vehicle: Klucel (hydroxypropylcellulose) (HPC)): 100 % of control | T/C (dose: 50.0 mg/kg/injection, schedule: Q04DX003 (ip), vehicle: Klucel (hydroxypropylcellulose) (HPC)): 100 % of control | T/C (dose: 100.0 mg/kg/injection, schedule: Q01DX009 (ip), vehicle: Klucel (hydroxypropylcellulose) (HPC)): 100 % of control and 105 % of control | T/C [7]: 160 % of control | T/C [8]: 90 % of control | T/C [9]: 100 % of control | T/C (dose: 400.0 mg/kg/injection, schedule: Q01DX009 (ip), vehicle: Klucel (hydroxypropylcellulose) (HPC)): 95 % of control

Cc1csc(/N=C/c2ccc([N+](=O)[O-])o2)n1
T/C [10]: 109 % of control | T/C [11]: 118 % of control | T/C [12]: 113 % of control

CCCCN(CCCC)CC(O)c1cc(-c2ccc(Cl)c(Cl)c2)cc2cc(Cl)ccc12 (stereo not drawn)
T/C [5]: 99 % of control | T/C [6]: 99 % of control | T/C [1]: 92 % of control and 97 % of control

COC1CCC2=C(C1)C(=O)CC1c3ccccc3CN21 (stereo not drawn)
T/C (dose: 25.0 mg/kg/injection, schedule: Q04DX003 (ip), vehicle: saline with Tween-80): 100 % of control | T/C [10]: 104 % of control

COc1cc2ccc3c(c2cc1OC)CN1CCc2cc4c(cc2C1C3)OCO4 (stereo not drawn)
T/C (dose: 44.0 mg/kg/injection, schedule: Q01DX009 (ip), vehicle: saline with Tween-80): 115 % of control | T/C [1]: 120 % of control | T/C [13]: 118 % of control | T/C [3]: 112 % of control | T/C [14]: 100 % of control | T/C [15]: 100 % of control

Cn1c2ccccc2c(=O)c2ccc(Cl)cc21
T/C [11]: 105 % of control | T/C [12]: 105 % of control | T/C [16]: 100 % of control

CCOC(=O)C(NC(C)=O)(C(=O)OCC)C(C)C(O)c1ccc(OC)c(OC)c1O (stereo not drawn)
T/C [17]: 100 % of control | T/C [18]: 100 % of control | T/C [7]: 109 % of control | T/C [19]: 122 % of control | T/C [20]: 100 % of control

COc1cccc(/C=C/C(=O)c2ccc(Cl)cc2)c1OC
T/C (dose: 50.0 mg/kg/injection, schedule: Q01DX009 (ip), vehicle: other): 95 % of control | T/C (dose: 100.0 mg/kg/injection, schedule: Q01DX009 (ip), vehicle: other): 104 % of control | T/C [2]: 100 % of control | T/C (dose: 200.0 mg/kg/injection, schedule: Q01DX009 (ip), vehicle: other): 95 % of control | T/C [21]: 100 % of control

Cc1ccc(NC(=O)OCCSC(=O)COc2ccc(Cl)cc2Cl)cc1
T/C [11]: 100 % of control | T/C [12]: 100 % of control | T/C [16]: 104 % of control

O=S(=O)(F)c1ccc(N=C=S)cc1
T/C [4]: 120 % of control | T/C [5]: 116 % of control | T/C [6]: 112 % of control

COc1ccc2nc(C)c(COC(C)=O)c(Cl)c2c1
T/C [18]: 104 % of control | T/C [13]: 104 % of control | T/C [19]: 104 % of control | T/C [14]: 105 % of control | T/C [20]: 101 % of control | T/C [15]: 90 % of control

COc1ccc(C2(C(=O)O)CCCC2)cc1
T/C [2]: 95 % of control | T/C [11]: 104 % of control | T/C [3]: 91 % of control | T/C [12]: 100 % of control | T/C [21]: 91 % of control | T/C [16]: 112 % of control

c1coc(CNc2ncnc3nc[nH]c23)c1
T/C [2]: 95 % of control | T/C [11]: 91 % of control | T/C [3]: 86 % of control | T/C [12]: 95 % of control | T/C [21]: 100 % of control | T/C [16]: 86 % of control

COc1ccc2c(c1)CCC1C2CCC2(C)/C(=N/O)C3OC3C12 (stereo not drawn)
T/C [1]: 121 % of control | T/C [2]: 111 % of control | T/C [3]: 111 % of control

COC(=O)c1cc(=O)nc(N/N=C/c2ccc(OC)cc2)s1
T/C (dose: 50.0 mg/kg/injection, schedule: Q01DX005 (ip), vehicle: saline with Tween-80): 102 % of control | T/C (dose: 100.0 mg/kg/injection, schedule: Q01DX005 (ip), vehicle: saline with Tween-80): 102 % of control | T/C (dose: 200.0 mg/kg/injection, schedule: Q01DX005 (ip), vehicle: saline with Tween-80): 102 % of control

S=C1CCNCC1
T/C (dose: 12.5 mg/kg/injection, schedule: Q01DX009 (ip), vehicle: saline): 95 % of control | T/C [17]: 86 % of control | T/C [18]: 100 % of control

COc1cc(C(=O)O)c2c(c1C)OC(=O)c1c(C)cc(O)c(C=O)c1O2
T/C (dose: 2.0 mg/kg/injection, schedule: Q01DX010 (ip), vehicle: saline): 95 % of control | T/C (dose: 4.0 mg/kg/injection, schedule: Q01DX009 (ip), vehicle: Klucel (hydroxypropylcellulose) (HPC)): 109 % of control | T/C (dose: 4.0 mg/kg/injection, schedule: Q01DX010 (ip), vehicle: saline): 90 % of control and 122 % of control and 123 % of control | T/C (dose: 8.0 mg/kg/injection, schedule: Q01DX010 (ip), vehicle: saline): 90 % of control | T/C (dose: 10.0 mg/kg/injection, schedule: Q04DX003 (ip), vehicle: saline): 104 % of control | T/C (dose: 16.0 mg/kg/injection, schedule: Q01DX010 (ip), vehicle: saline): 113 % of control and 123 % of control | T/C (dose: 20.0 mg/kg/injection, schedule: Q04DX003 (ip), vehicle: saline): 115 % of control | T/C (dose: 40.0 mg/kg/injection, schedule: Q01DX001 (ip), vehicle: saline): 111 % of control | T/C (dose: 80.0 mg/kg/injection, schedule: Q01DX001 (ip), vehicle: saline): 115 % of control | T/C (dose: 80.0 mg/kg/injection, schedule: Q04DX003 (ip), vehicle: saline): 104 % of control

CC1=CCCC2(CCC3(C)CC32)C1(C)C (stereo not drawn)
T/C (dose: 45.0 mg/kg/injection, schedule: Q01DX009 (ip), vehicle: saline): 90 % of control | T/C [18]: 100 % of control | T/C (dose: 67.0 mg/kg/injection, schedule: Q01DX009 (ip), vehicle: saline): 109 % of control | T/C [7]: 113 % of control and 120 % of control

CCCCCCCCCCC(CCCCCCCCCC)CCCCCCCCC(CCCCCCCCCC)CCCCCCCCCC
T/C [8]: 108 % of control | T/C [9]: 93 % of control | T/C (dose: 400.0 mg/kg/injection, schedule: Q04DX003 (ip), vehicle: Klucel (hydroxypropylcellulose) (HPC)): 97 % of control

Nc1nc(N)c(-c2ccccc2)c(C(=O)O)n1
T/C (dose: 100.0 mg/kg/injection, schedule: Q01DX001 (ip), vehicle: Klucel (hydroxypropylcellulose) (HPC)): 109 % of control | T/C (dose: 200.0 mg/kg/injection, schedule: Q01DX001 (ip), vehicle: Klucel (hydroxypropylcellulose) (HPC)): 118 % of control | T/C (dose: 400.0 mg/kg/injection, schedule: Q01DX001 (ip), vehicle: Klucel (hydroxypropylcellulose) (HPC)): 113 % of control

Cc1c2ccccc2c(C)c2c1ccc1ccccc12
T/C (dose: 1.7 mg/kg/injection, schedule: Q01DX009 (ip), vehicle: saline with Tween-80): 172 % of control | T/C (dose: 2.6 mg/kg/injection, schedule: Q01DX009 (ip), vehicle: saline with Tween-80): 163 % of control | T/C (dose: 4.0 mg/kg/injection, schedule: Q01DX009 (ip), vehicle: saline with Tween-80): 177 % of control | T/C (dose: 6.0 mg/kg/injection, schedule: Q01DX009 (ip), vehicle: saline with Tween-80): 168 % of control | T/C (dose: 13.0 mg/kg/injection, schedule: Q01DX009 (ip), vehicle: saline with Tween-80): 172 % of control
